Test results: patent US10160771B2, “Hepatitis C virus inhibitors and uses thereof in preparation of drugs” (priority 2014, dated 2018)

Experiments:
[1] = system: HCV genotype 1a (HCV-1a) replicon cells; assay: HCV genotype 1a replicon luciferase assay (EC50); assay type: cell-based, hepatitis C virus genotype 1a (H77 clone); conditions: Hepatitis C virus, 72 h, 3 days, luciferase (Bright-Glo)
Outline: (§1)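 EC50 values come from nonlinear fitting of inhibition derived from replicon luciferase signal. Cells (8000/well) were treated 3 days with duplicate 6-point, 5-fold dilutions, starting at 100, 10 or 1 nM, with 0.5% DMSO.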

[2] = system: HCV genotype 1b (HCV-1b) replicon cells; assay: HCV genotype 1b replicon luciferase assay (EC50); assay type: cell-based, hepatitis C virus genotype 1b (Con1 clone); conditions: Hepatitis C virus, 72 h, 3 days, luciferase (Bright-Glo)
Outline: as §1

[3] = Cell Titer-fluor cell activity assay in HCV-1b replicon cells (CC50); assay type: cell-based
Outline: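 CC50 derived by nonlinear fitting of inhibition % from Cell Titer-fluor signal (405/515 nm, 30 min). Cells: genotype 1b Con1 replicon carrying E1202G, T1280I, K1846T, seeded 8000/well with compound for 3 days, 37 °C, 0.5% DMSO; 6 points, 5-fold dilution, top 100, 10 or 1 nM, duplicates.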

| Structure (SMILES) | EC50 [1] [nM] | EC50 [2] [nM] | CC50 at 3 days [3] [nM] |
| --- | --- | --- | --- |
| COC(=O)N[C@H](C(=O)N1CCC[C@H]1c1ncc(-c2ccc(-c3ccc(-c4cnc([C@H]5C6CCC(C6)[C@@H]5C(=O)NCc5ccc(F)nc5)[nH]4)cc3)cc2)[nH]1)C(C)C (stereo partly drawn) [AA_214_A] | 1 to 10 | 0.001 to 0.1 | > 1 |
| COC(=O)N[C@H](C(=O)N1CCC[C@H]1c1ncc(-c2ccc(-c3ccc(-c4cnc([C@@H]5C6CCC(C6)[C@H]5C(=O)NCc5ccc(F)nc5)[nH]4)cc3)cc2)[nH]1)C(C)C (stereo partly drawn) [AA_214_B] | 10 to 100 | 0.001 to 0.1 | > 1 |
| COC(=O)N[C@H](C(=O)N1CCC[C@H]1c1ncc(-c2ccc(-c3ccc(-c4cnc([C@H]5C6CCC(C6)[C@@H]5C(=O)NCc5cccnc5C(C)C)[nH]4)cc3)cc2)[nH]1)C(C)C (stereo partly drawn) [AA_215_A] | 10 to 100 | 0.001 to 0.1 | > 1 |
| COC(=O)N[C@H](C(=O)N1CCC[C@H]1c1ncc(-c2ccc(-c3ccc(-c4cnc([C@@H]5C6CCC(C6)[C@H]5C(=O)NCc5cccnc5C(C)C)[nH]4)cc3)cc2)[nH]1)C(C)C (stereo partly drawn) [AA_215_B] | 10 to 100 | 0.001 to 0.1 | > 1 |
| COC(=O)N[C@H](C(=O)N1CCC[C@H]1c1ncc(-c2ccc(-c3ccc(-c4cnc([C@H]5C6CCC(C6)[C@@H]5C(=O)NCc5cccnc5C(F)(F)F)[nH]4)cc3)cc2)[nH]1)C(C)C (stereo partly drawn) [AA_216_A] | 10 to 100 | 0.001 to 0.1 | > 1 |
| COC(=O)N[C@H](C(=O)N1CCC[C@H]1c1ncc(-c2ccc(-c3ccc(-c4cnc([C@@H]5C6CCC(C6)[C@H]5C(=O)NCc5cccnc5C(F)(F)F)[nH]4)cc3)cc2)[nH]1)C(C)C (stereo partly drawn) [AA_216_B] | 10 to 100 | 0.001 to 0.1 | > 1 |
| COC(=O)N[C@H](C(=O)N1CCC[C@H]1c1ncc(-c2ccc(-c3ccc(-c4cnc([C@H]5C6CCC(C6)[C@@H]5C(=O)NCc5cccnc5C)[nH]4)cc3)cc2)[nH]1)C(C)C (stereo partly drawn) [AA_217] | 10 to 100 | 1 to 10 | > 1 |
| COC(=O)N[C@H](C(=O)N1CCC[C@H]1c1ncc(-c2ccc(-c3ccc(-c4cnc([C@H]5C6CCC(C6)[C@@H]5C(=O)NCC5CNc6ccccc6C5)[nH]4)cc3)cc2)[nH]1)C(C)C (stereo partly drawn) [AA_218] | 10 to 100 | 0.101 to 1 | > 1 |
| COC(=O)N[C@H](C(=O)N1CCC[C@H]1c1ncc(-c2ccc(-c3ccc(-c4cnc(C5C6CCC(C6)[C@H]5C(=O)NCc5nccs5)[nH]4)cc3)cc2)[nH]1)[C@@H](C)OC (stereo partly drawn) [AA_219_A] | 1 to 10 | 0.001 to 0.1 | > 1 |
| COC(=O)N[C@H](C(=O)N1CCC[C@H]1c1ncc(-c2ccc(-c3ccc(-c4cnc(C5C6CCC(C6)[C@H]5C(=O)NCCO)[nH]4)cc3)cc2)[nH]1)[C@@H](C)OC (stereo partly drawn) [AA_220_A] | 10 to 100 | 0.101 to 1 | > 1 |
| COC(=O)N[C@H](C(=O)N1CCC[C@H]1c1ncc(-c2ccc(-c3ccc(-c4cnc(C5C6CCC(C6)[C@@H]5C(=O)NCCO)[nH]4)cc3)cc2)[nH]1)[C@@H](C)OC (stereo partly drawn) [AA_220_B] | 10 to 100 | 1 to 10 | > 1 |
| COC(=O)N[C@H](C(=O)N1CCC[C@H]1c1ncc(-c2ccc(-c3ccc(-c4cnc(C5C6CCC(C6)[C@H]5C(=O)NCc5ccccn5)[nH]4)cc3)cc2)[nH]1)[C@@H](C)OC (stereo partly drawn) [AA_221_A] | 1 to 10 | 0.001 to 0.1 | > 1 |
| COC(=O)N[C@H](C(=O)N1CCC[C@H]1c1ncc(-c2ccc(-c3ccc(-c4cnc(C5C6CCC(C6)[C@@H]5C(=O)NCc5ccco5)[nH]4)cc3)cc2)[nH]1)[C@@H](C)OC (stereo partly drawn) [AA_222_A] | 10 to 100 | 0.001 to 0.1 | > 1 |
| COC(=O)N[C@H](C(=O)N1CCC[C@H]1c1ncc(-c2ccc(-c3ccc(-c4cnc(C5C6CCC(C6)[C@H]5C(=O)NCc5ccc(OC)nc5)[nH]4)cc3)cc2)[nH]1)[C@@H](C)OC (stereo partly drawn) [AA_223_A] | 10 to 100 | 0.101 to 1 | > 1 |
| COC(=O)N[C@H](C(=O)N1CCC[C@H]1c1ncc(-c2ccc(-c3ccc(-c4cnc(C5C6CCC(C6)[C@@H]5C(=O)NCc5ccc(OC)nc5)[nH]4)cc3)cc2)[nH]1)[C@@H](C)OC (stereo partly drawn) [AA_223_B] | 10 to 100 | 0.101 to 1 | > 1 |
| COC(=O)N[C@H](C(=O)N1CCC[C@H]1c1ncc(-c2ccc(-c3ccc(-c4cnc([C@H]5C6CCC(C6)[C@@H]5C(=O)NCc5cccnc5F)[nH]4)cc3)cc2)[nH]1)C(C)C (stereo partly drawn) [AA_224_A] | 1 to 10 | 0.001 to 0.1 | > 1 |
| COC(=O)N[C@H](C(=O)N1CCC[C@H]1c1ncc(-c2ccc(-c3ccc(-c4cnc([C@@H]5C6CCC(C6)[C@H]5C(=O)NCc5cccnc5F)[nH]4)cc3)cc2)[nH]1)C(C)C (stereo partly drawn) [AA_224_B] | 1 to 10 | 0.001 to 0.1 | > 1 |

| Structure (SMILES) | EC50 [1] [nM] | EC50 [2] [nM] | CC50 at 3 days [3] [nM] |
| --- | --- | --- | --- |
| COC(=O)N[C@H](C(=O)N1CCC[C@H]1c1ncc(-c2ccc(-c3ccc(-c4cnc(C5[C@H]6CC[C@H](C6)[C@H]5C(=O)NCc5cccnc5F)[nH]4)cc3)cc2)[nH]1)C(C)C (stereo partly drawn) [AA_224_ENDOA2] | 0.101 to 1 | 0.001 to 0.1 | > 1 |
| COC(=O)N[C@H](C(=O)N1CCC[C@H]1c1ncc(-c2ccc(-c3ccc(-c4cnc(C5C6CCC(C6)[C@@H]5C(=O)NCc5cccc(N)c5)[nH]4)cc3)cc2)[nH]1)[C@@H](C)OC (stereo partly drawn) [AA_226] | 10 to 100 | 0.001 to 0.1 | > 1 |
| COC(=O)N[C@H](C(=O)N1CCC[C@H]1c1ncc(-c2ccc(-c3ccc(-c4cnc([C@H]5C6CCC(C6)[C@@H]5C(=O)NCc5ccc(N)cc5)[nH]4)cc3)cc2)[nH]1)[C@@H](C)OC (stereo partly drawn) [AA_227] | 10 to 100 | 0.101 to 1 | > 1 |
| COC(=O)N[C@H](C(=O)N1CCC[C@H]1c1ncc(-c2ccc(-c3ccc(-c4cnc([C@H]5C6CCC(C6)[C@@H]5C(=O)NCc5cccnc5O)[nH]4)cc3)cc2)[nH]1)C(C)C (stereo partly drawn) [AA_228] | 1 to 10 | 0.001 to 0.1 | > 1 |
| COC(=O)N[C@H](C(=O)N1C[C@@H](OC)C[C@H]1c1ncc(-c2ccc(-c3ccc(-c4cnc([C@@H]5C6CCC(C6)[C@H]5C(=O)NCc5cccnc5)[nH]4)cc3)cc2)[nH]1)C(C)C (stereo partly drawn) [AA_230_A] | 0.101 to 1 | 0.001 to 0.1 | > 1 |
| COC(=O)N[C@H](C(=O)N1C[C@@H](OC)C[C@H]1c1ncc(-c2ccc(-c3ccc(-c4cnc([C@H]5C6CCC(C6)[C@@H]5C(=O)NCc5cccnc5)[nH]4)cc3)cc2)[nH]1)C(C)C (stereo partly drawn) [AA_230_B] | 1 to 10 | 0.001 to 0.1 | > 1 |
| COC(=O)N[C@H](C(=O)N1C[C@@H](OC)C[C@H]1c1ncc(-c2ccc(-c3ccc(-c4cnc([C@@H]5C6CCC(C6)[C@H]5C(=O)NCc5cccnc5)[nH]4)cc3)cc2)[nH]1)[C@@H](C)OC (stereo partly drawn) [AA_231_A] | 0.101 to 1 | 0.001 to 0.1 | > 1 |
| COC(=O)N[C@H](C(=O)N1C[C@@H](OC)C[C@H]1c1ncc(-c2ccc(-c3ccc(-c4cnc([C@H]5C6CCC(C6)[C@@H]5C(=O)NCc5cccnc5)[nH]4)cc3)cc2)[nH]1)[C@@H](C)OC (stereo partly drawn) [AA_231_B] | 1 to 10 | 0.001 to 0.1 | > 1 |
| COC(=O)N[C@H](C(=O)N1CCC[C@H]1c1ncc(-c2ccc(-c3ccc(-c4cnc([C@H]5C6CCC(C6)[C@@H]5C(=O)NCc5ccc(C(F)(F)F)nc5)[nH]4)cc3)cc2)[nH]1)C(C)C (stereo partly drawn) [AA_232_A] | 1 to 10 | 0.001 to 0.1 | > 1 |
| COC(=O)N[C@H](C(=O)N1CCC[C@H]1c1ncc(-c2ccc(-c3ccc(-c4cnc([C@@H]5C6CCC(C6)[C@H]5C(=O)NCc5ccc(C(F)(F)F)nc5)[nH]4)cc3)cc2)[nH]1)C(C)C (stereo partly drawn) [AA_232_B] | 1 to 10 | 0.001 to 0.1 | > 1 |
| COC(=O)N[C@H](C(=O)N1CCC[C@H]1c1ncc(-c2ccc(-c3ccc(-c4cnc([C@@H]5C6CCC(C6)[C@H]5C(=O)NC(c5cccnc5)C(C)C)[nH]4)cc3)cc2)[nH]1)C(C)C (stereo partly drawn) [AA_233_B] | 1 to 10 | 0.001 to 0.1 | > 1 |
| COC(=O)N[C@H](C(=O)N1CCC[C@H]1c1ncc(-c2ccc(-c3ccc(-c4cnc([C@@H]5[C@H]6CC[C@H](C6)[C@H]5C(=O)N[C@H](c5cccnc5)C(C)C)[nH]4)cc3)cc2)[nH]1)C(C)C [AA_233_ENDOA2_A] | 0.101 to 1 | 0.001 to 0.1 | > 1 |
| COC(=O)N[C@H](C(=O)N1CCC[C@H]1c1ncc(-c2ccc(-c3ccc(-c4cnc(C5[C@H]6CC[C@H](C6)[C@H]5C(=O)N[C@@H](c5cccnc5)C(C)C)[nH]4)cc3)cc2)[nH]1)C(C)C (stereo partly drawn) [AA_233_ENDOA2_B] | 10 to 100 | 0.001 to 0.1 | > 1 |
| COC(=O)N[C@H](C(=O)N1CCC[C@H]1c1ncc(-c2ccc(-c3ccc(-c4cnc([C@H]5C6CCC(C6)[C@@H]5C(=O)NCc5cccnc5C5CC5)[nH]4)cc3)cc2)[nH]1)C(C)C (stereo partly drawn) [AA_234_A] | 1 to 10 | 0.001 to 0.1 | > 1 |
| COC(=O)N[C@H](C(=O)N1CCC[C@H]1c1ncc(-c2ccc(-c3ccc(-c4cnc([C@@H]5C6CCC(C6)[C@H]5C(=O)NCc5cccnc5C5CC5)[nH]4)cc3)cc2)[nH]1)C(C)C (stereo partly drawn) [AA_234_B] | 10 to 100 | 0.001 to 0.1 | > 1 |
| COC(=O)N[C@H](C(=O)N1CCC[C@H]1c1ncc(-c2ccc(-c3ccc(-c4cnc([C@H]5C6CCC(C6)[C@@H]5C(=O)NCc5cncc(C(C)C)c5)[nH]4)cc3)cc2)[nH]1)C(C)C (stereo partly drawn) [AA_235_A] | 10 to 100 | 0.001 to 0.1 | > 1 |
